According to patent US12091426B2, “Bifunctional degraders of hematopoietic progenitor kinase and therapeutic uses thereof” (Nurix Therapeutics, Inc., priority 2021, dated 2024):

Biological target: T1, HPK1 (Homo sapiens, UniProt Q92918)
T1 construct: A HiBiT tag was introduced by CRISPR on the N terminus of HPK1 in Jurkat cells; host or cells: Jurkat cells (ATCC TIB-152), monoclonal line with CRISPR knock-in of HiBiT at the endogenous HPK1 locus
Test: HPK1 Cellular HiBit Degradation Assay
Type: cell-based
Conditions: HiBiT HPK1 Jurkat cells, 24 hrs; for DC50: concentration at which 50% of HPK1 was remaining, read-out: DC50 Category; for Dmax: Jurkat, maximum degradation vs DMSO vehicle control, read-out: Dmax Category
How it was run: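 HPK1 levels are read by HiBiT luminescence after 24 h exposure of HiBiT-knock-in Jurkat cells to compound at 10 uM–0.1 nM final (11 points). Relative to DMSO (100%), DC50 is the concentration leaving 50% HPK1 from a variable-slope fit, and Dmax is 100 minus minimum remaining. Viability checked in-plate.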

T1 sequence (Q92918 whole entry): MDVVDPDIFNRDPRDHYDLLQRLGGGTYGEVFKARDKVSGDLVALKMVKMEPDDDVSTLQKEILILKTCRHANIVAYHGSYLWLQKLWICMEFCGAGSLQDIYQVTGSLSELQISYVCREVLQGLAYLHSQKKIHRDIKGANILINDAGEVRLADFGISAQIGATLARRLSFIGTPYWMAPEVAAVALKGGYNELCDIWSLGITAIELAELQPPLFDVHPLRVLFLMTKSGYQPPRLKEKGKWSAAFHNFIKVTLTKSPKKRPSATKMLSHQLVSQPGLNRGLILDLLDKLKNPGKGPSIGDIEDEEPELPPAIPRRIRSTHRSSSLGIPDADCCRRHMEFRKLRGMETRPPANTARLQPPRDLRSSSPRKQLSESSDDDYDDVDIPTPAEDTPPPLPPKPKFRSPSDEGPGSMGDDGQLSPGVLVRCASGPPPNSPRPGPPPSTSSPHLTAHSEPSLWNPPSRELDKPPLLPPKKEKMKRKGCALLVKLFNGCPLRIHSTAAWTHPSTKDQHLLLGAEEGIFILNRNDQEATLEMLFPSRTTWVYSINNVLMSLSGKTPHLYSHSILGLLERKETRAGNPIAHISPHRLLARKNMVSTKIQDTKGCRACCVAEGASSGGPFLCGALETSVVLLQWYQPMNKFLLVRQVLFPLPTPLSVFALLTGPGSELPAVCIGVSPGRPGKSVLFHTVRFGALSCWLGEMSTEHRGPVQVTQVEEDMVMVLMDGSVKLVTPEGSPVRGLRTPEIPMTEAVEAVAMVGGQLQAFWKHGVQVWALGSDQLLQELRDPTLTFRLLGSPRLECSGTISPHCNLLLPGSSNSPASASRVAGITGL

| Compound | DC50 [nM] | Dmax [%] |
| --- | --- | --- |
| CC(C)n1cnc2cc(-c3ccc4c(c3)N([C@H]3C[C@@H](N5CCCCC5)C3)C(=O)C43CCN(C(=O)C4CCN(C(=O)[C@H]5CC[C@H](Oc6ccc(C7CCC(=O)NC7=O)cc6)CC5)CC4)CC3)nc(NC3CC3)c21 (mixture of isomers) [Example 59, (3RS)-3-(4-{[(1R,4R)-4-[4-({6-[4-(cyclopropylamino)-3-(propan-2-yl)-3H-imidazo[4,5-c]pyridin-6-yl]-2-oxo-1-[(1S,3S)-3-(piperidin-1-yl)cyclobutyl]-1,2-dihydrospiro[indole-3,4′-piperidin]-1′-yl}carbonyl)piperidine-1-carbonyl]cyclohexyl]oxy}phenyl)piperidine-2,6-dione] | < 100 | 50 to 70 |
| CC(C)n1cnc2cc(-c3ccc4c(c3)N([C@H]3C[C@@H](N5CCCCC5)C3)C(=O)C43CCN(C(=O)C4CCN(C(=O)C5CCN(c6ccc(N7CCC(=O)NC7=O)cc6)CC5)CC4)CC3)nc(Nc3ccncc3F)c21 [Example 71, 1-[4-(4-{4-[(6-{4-[(3-Fluoropyridin-4-yl)amino]-3-(propan-2-yl)-3H-imidazo[4,5-c]pyridin-6-yl}-2-oxo-1-[(1S,3S)-3-(piperidin-1-yl)cyclobutyl]-1,2-dihydrospiro[indole-3,4′-piperidin]-1′-yl)carbonyl]piperidine-1-carbonyl}piperidin-1-yl)phenyl]-1,3-diazinane-2,4-dione] | < 100 | 70 to 85 |

The remaining lines, values ahead:

| DC50 [nM] | Dmax [%] | Compound |
| --- | --- | --- |
| < 100 | 70 to 85 | CC(C)n1cnc2cc(-c3ccc4c(c3)N([C@H]3C[C@@H](N5CCCCC5)C3)C(=O)C43CCN(C(=O)[C@H]4CCN(C(=O)C5CCN(c6ccc(C7CCC(=O)NC7=O)cn6)CC5)C4)CC3)nc(Nc3ccccc3F)c21 (mixture of isomers) [Example 33, (3RS)-3-(6-{4-[(3S)-3-[(6-{4-[(2-fluorophenyl)amino]-3-(propan-2-yl)-3H-imidazo[4,5-c]pyridin-6-yl}-2-oxo-1-[(1S,3S)-3-(piperidin-1-yl)cyclobutyl]-1,2-dihydrospiro[indole-3,4′-piperidin]-1′-yl)carbonyl]pyrrolidine-1-carbonyl]piperidin-1-yl}pyridin-3-yl)piperidine-2,6-dione] |
| 500 to 1000 | 50 to 70 | CC(C)n1cnc2cc(-c3ccc4c(c3)N([C@H]3C[C@@H](N5CCCCC5)C3)C(=O)C43CCN(C(=O)C4CC45CCN(C(=O)C4CCN(c6ccc(C7CCC(=O)NC7=O)cn6)CC4)C5)CC3)nc(NC3CC3)c21 (mixture of isomers) [Example 303, (3RS)-3-(6-{4-[1-({6-[4-(cyclopropylamino)-3-(propan-2-yl)-3H-imidazo[4,5-c]pyridin-6-yl]-2-oxo-1-[(1S,3S)-3-(piperidin-1-yl)cyclobutyl]-1,2-dihydrospiro[indole-3,4′-piperidin]-1′-yl}carbonyl)-5-azaspiro[2.4]heptane-5-carbonyl]piperidin-1-yl}pyridin-3-yl)piperidine-2,6-dione] |
| < 100 | 70 to 85 | CC(C)n1cnc2cc(-c3ccc4c(c3)N([C@H]3C[C@@H](N5CCCCC5)C3)C(=O)C43CCN(C(=O)[C@@H]4CCN(C(=O)C5CCN(c6ncc(C7CCC(=O)NC7=O)cn6)CC5)C4)CC3)nc(Nc3ccccc3F)c21 (stereo partly drawn) [Example 158, 3-(2-(4-((R)-3-(6-(4-((2-fluorophenyl)amino)-3-isopropyl-3H-imidazo[4,5-c]pyridin-6-yl)-2-oxo-1-((1S,3S)-3-(piperidin-1-yl)cyclobutyl)spiro[indoline-3,4′-piperidine]-1′-carbonyl)pyrrolidine-1-carbonyl)piperidin-1-yl)pyrimidin-5-yl)piperidine-2,6-dione] |
